Five molecules from patent US20240207427A1, “SELECTIVE DRUG RELEASE FROM INTERNALIZED CONJUGATES OF BIOLOGICALLY ACTIVE COMPOUNDS” (priority 2021, published 2024) can be followed below.

The structures appear in SMILES notation. Like-named read-outs stand apart in the source and are kept apart here.

Common to all, as to type: cell-based
Test [1] concerns renal carcinoma cells (786-O). The experiment in a line: In vitro potency (CellTiter-Glo, 96 h), 786-O. The settings on record: Homo sapiens, 786-0, 96 h. In short, it runs like this: (§1)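 Log-phase cells were seeded for 24 h in RPMI 1640 with 20% FBS, then exposed to serially diluted antibody-drug conjugates or free camptothecin drug for 4 days at 37 °C. Growth inhibition was read by luminescence, and IC50 values were reported in ng/mL and nmol/L.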
(ATP-based viability assays read luminescence as a measure of living cells.)

The subject of test [2] is melanoma cells (A2058). The experiment in a line: In vitro potency (CellTiter-Glo, 96 h), A2058. As to conditions: Homo sapiens, A2058, 96 h. The method, then: (§2) In vitro potency was assessed on multiple cancer cell lines. All cell lines were authenticated by STR profiling at IDEXX Bioresearch and cultured for no more than 2 months after resuscitation. Cells cultured in log-phase growth were seeded for 24 hours in 96-well plates containing […] RPMI 1640 supplemented with 20% FBS. Serial dilutions of antibody-drug conjugates in cell culture media were prepared at 4× working concentrations, and 50 μL of each dilution was added to the 96-well plates. Following addition of test articles, cells were incubated with test articles for 4 days at 37 0° C. After 96 hours, growth inhibition was assessed by CellTiterGlo® (Promega, Madison, WI) and luminescence was measured on a plate reader.
(§3) In Table 7, IC50 values for ADCs are given in ng/mL. Cell viability was determined by CellTiter-Glo staining after 96 h exposure to ADC. ND=Not Determined. Ag2 is an antibody targeting a ubiquitous and readily internalizable antigen. The cancer cell lines tested are renal carcinoma cells (786-0), melanoma cells (A2058), pancreatic cancer cells (BxPC3), non-small-cell lung cancer cells (Calu1), anaplastic large cell lymphoma cells (DEL, DELBVR, Karpas299), Hodgkin's lymphoma cells (L540cy), (Ls174T), breast cancer cells (MDA-MB-231), acute myeloid leukemia cells (MOLM-13), and B-lymphocyte cancer cells (SU-DHL4).
(§4) In vitro potency was assessed on multiple cancer cell lines. All cell lines were authenticated by STR profiling at IDEXX Bioresearch and cultured for no more than 2 months after resuscitation. Cells cultured in log-phase growth were seeded for 24 hours in 96-well plates containing […] RPMI 1640 supplemented with 20% FBS. Following addition of test articles, cells were incubated with test articles for 4 days at 37 0° C. After 96 hours, growth inhibition was assessed by CellTiterGlo® (Promega, Madison, WI) and luminescence was measured on a plate reader.
(§5) Cell viability was determined by CellTiter-Glo staining after 96 h exposure to the compound. ND=Not Determined. The cancer cell lines tested are renal carcinoma cells (786-0), melanoma cells (A2058), pancreatic cancer cells (BxPC3), non-small-cell lung cancer cells (Calu1), anaplastic large cell lymphoma cells (DEL, DELBVR, Karpas299), Hodgkin's lymphoma cells (L540cy), (Ls 174T), breast cancer cells (MDA-MB-231), acute myeloid leukemia cells (MOLM-13), B-lymphocyte cancer cells (SU-DHL4), multiple myeloma cells (MM.1R), (U266), and melanoma cells (SK-MEL-5).
as §2, with “37°” for “37 0°”
(§6) In the following Tables IC50 values for ADCs and CPT free drugs are given in ng/mL and nmol/L concentrations. Cell viability was determined by CellTiter-Glo staining after 96 h exposure to ADC or CPT free drug.
(§7) Cell viability was determined by CellTiter-Glo staining after 96 h exposure to ADC. ND=Not Determined.

Test [3] concerns pancreatic cancer cells (BxPC3). The experiment in a line: In vitro potency (CellTiter-Glo, 96 h), BxPC3. As to conditions: Homo sapiens, BXPC-3, 96 h. The gist of the method:
(§8)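 Medium: RPMI 1640 + 20% FBS. Pre-seeding: 24 h. Treatment: ADC or CPT free drug serial dilutions, 96 h, 37 °C. Read-out: luminescence; IC50 in ng/mL and nmol/L.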

The test system of test [4] is non-small-cell lung cancer cells (Calu1). The experiment in a line: In vitro potency (CellTiter-Glo, 96 h), Calu1. The settings on record: Homo sapiens, Calu-1, 96 h. Here is the method: as §2, §3, §4, §5
as §2, with “37°” for “37 0°”
as §6, §7

Test [5] concerns anaplastic large cell lymphoma cells (DEL). The experiment in a line: In vitro potency (CellTiter-Glo, 96 h), DEL. In short, it runs like this: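 Growth inhibition after 96 h at 37 °C with test article, measured by luminescence; cells in RPMI 1640, 20% FBS.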
The test system of test [6] is anaplastic large cell lymphoma cells (DELBVR). Put plainly: In vitro potency (CellTiter-Glo, 96 h), DELBVR. The gist of the method: as §1
In test [7] the test system is anaplastic large cell lymphoma cells (Karpas299). The experiment in a line: In vitro potency (CellTiter-Glo, 96 h), Karpas299. As to conditions: Homo sapiens, KARPAS-299, 96 h. In short, it runs like this:
as §1

The subject of test [8] is Hodgkin's lymphoma cells (L540cy). The experiment in a line: In vitro potency (CellTiter-Glo, 96 h), L540cy. The gist of the method: as §1
Test [9] has as its system breast cancer cells (MDA-MB-231). The experiment in a line: In vitro potency (CellTiter-Glo, 96 h), MDA-MB-231. The settings on record: Homo sapiens, MDA-MB-231, 96 h. The gist of the method: as §1
Test [10] has as its system acute myeloid leukemia cells (MOLM-13). Put plainly: In vitro potency (CellTiter-Glo, 96 h), MOLM-13. The settings on record: Homo sapiens, MOLM-13, 96 h. The gist of the method: as §8
The subject of test [11] is B-lymphocyte cancer cells (SU-DHL4). Put plainly: In vitro potency (CellTiter-Glo, 96 h), SU-DHL-4. As to conditions: Homo sapiens, SU-DHL-4, 96 h. In short, it runs like this: as §1
For test [12], the system named is Ls174T cells. Put plainly: In vitro potency (CellTiter-Glo, 96 h), Ls174T. As to conditions: Homo sapiens, LS174T, CPT free drugs. In short, it runs like this:
as §1

Setting [13] is: CPT free drugs, Table 24, CellTiter-Glo after 96 h exposure, read-out: IC50 (nmol/L) 786-O.
[14] abbreviates: CPT free drugs, Table 24, CellTiter-Glo after 96 h exposure, read-out: IC50 (nmol/L) A2058.
[15] abbreviates: CPT free drugs, Table 24, CellTiter-Glo after 96 h exposure, read-out: IC50 (nmol/L) BxPC3.
Setting [16] is: CPT free drugs, Table 24, CellTiter-Glo after 96 h exposure, read-out: IC50 (nmol/L) Calu1.
The mark [17] stands for this setting: CPT free drugs, Table 24, CellTiter-Glo after 96 h exposure, read-out: IC50 (nmol/L) DEL.
The mark [18] stands for this setting: CPT free drugs, Table 24, CellTiter-Glo after 96 h exposure, read-out: IC50 (nmol/L) DELBVR.
The mark [19] stands for this setting: CPT free drugs, Table 24, CellTiter-Glo after 96 h exposure, read-out: IC50 (nmol/L) Karpas299.
The mark [20] stands for this setting: CPT free drugs, Table 24, CellTiter-Glo after 96 h exposure, read-out: IC50 (nmol/L) L540cy.
Setting [21] is: CPT free drugs, Table 24, CellTiter-Glo after 96 h exposure, read-out: IC50 (nmol/L) MDAMB231.
Setting [22] is: CPT free drugs, Table 24, CellTiter-Glo after 96 h exposure, read-out: IC50 (nmol/L) MOLM-13.
Where [23] appears, read: CPT free drugs, Table 24, CellTiter-Glo after 96 h exposure, read-out: IC50 (nmol/L) SU-DHL-4.

For `CC[C@@]1(O)C(=O)OCc2c1cc1n(c2=O)Cc2c-1nc1ccccc1c2CN` [Compound 2ae], the IC50 in [1] (setting [13]) was determined as 17 nmol/L; in test [2] (setting [14]), 5 nmol/L; in test [3] (setting [15]) it was 23 nmol/L; in [4] (setting [16]), 65 nmol/L; in [5] (setting [17]), 5 nmol/L; in test [6] (setting [18]), 5 nmol/L. The IC50 in test [7] (setting [19]) was determined as 14 nmol/L; in [8] (setting [20]) it was 6 nmol/L; in [9] (setting [21]) it was 107 nmol/L; in test [10] (setting [22]) it was 191 nmol/L; in [11] (setting [23]), 8 nmol/L.
As to `CC[C@@]1(O)C(=O)OCc2c1cc1n(c2=O)Cc2c-1nc1cc3c(cc1c2CN)OCCO3` [Compound 2af], the IC50 was 7 nmol/L in test [1] (read-out: IC50 (nmol/L) 786-O, CPT free drugs, Table 24, CellTiter-Glo after 96 h exposure); 2 nmol/L in test [2] (read-out: IC50 (nmol/L) A2058); 7 nmol/L in test [3] (read-out: IC50 (nmol/L) BxPC3, CPT free drugs, Table 24, CellTiter-Glo after 96 h exposure); 57 nmol/L in test [4] (read-out: IC50 (nmol/L) Calu1); 1 nmol/L in test [5] (read-out: IC50 (nmol/L) DEL, CPT free drugs, Table 24, CellTiter-Glo after 96 h exposure); 1 nmol/L in [6] (read-out: IC50 (nmol/L) DELBVR, CPT free drugs, Table 24, CellTiter-Glo after 96 h exposure). Also, the IC50 is 6 nmol/L in test [7] (read-out: IC50 (nmol/L) Karpas299, CPT free drugs, Table 24, CellTiter-Glo after 96 h exposure); 3 nmol/L in test [8] (read-out: IC50 (nmol/L) L540cy, CPT free drugs, Table 24, CellTiter-Glo after 96 h exposure); 39 nmol/L in test [9] (read-out: IC50 (nmol/L) MDAMB231, CPT free drugs, Table 24, CellTiter-Glo after 96 h exposure); 32 nmol/L in test [10] (read-out: IC50 (nmol/L) MOLM-13, CPT free drugs, Table 24, CellTiter-Glo after 96 h exposure); 2 nmol/L in test [11] (read-out: IC50 (nmol/L) SU-DHL-4, CPT free drugs, Table 24, CellTiter-Glo after 96 h exposure).
For `CC[C@@]1(O)C(=O)OCc2c1cc1n(c2=O)Cc2c-1nc1ccc3c(c1c2CN)OCCO3` [Compound 2ag], the IC50 came to 35 nmol/L in test [1] (setting [13]); 10 nmol/L in [2] (setting [14]); 57 nmol/L in [3] (setting [15]); 153 nmol/L in [4] (setting [16]); 6 nmol/L in [5] (setting [17]); 13 nmol/L in test [6] (setting [18]). Further, the IC50 is 34 nmol/L in [7] (setting [19]); 15 nmol/L in test [8] (setting [20]); 177 nmol/L in [9] (setting [21]); 63 nmol/L in test [10] (setting [22]); 16 nmol/L in [11] (setting [23]).
On to `[2H]C1([2H])Oc2cc3nc4c(c(CN)c3cc2O1)Cn1c-4cc2c(c1=O)COC(=O)[C@]2(O)CC` [Compound 2an], for which the IC50 in test [1] (setting [13]) worked out at 1 nmol/L; in test [2] (setting [14]) it was 0.5 nmol/L; in test [3] (setting [15]), 1 nmol/L; in [4] (setting [16]), 1 nmol/L; in test [5] (setting [17]), 0.2 nmol/L; in [6] (setting [18]), 0.2 nmol/L. The IC50 in test [7] (setting [19]) amounted to 1 nmol/L; in [12] (Table 24, CellTiter-Glo after 96 h exposure, read-out: IC50 (nmol/L) Ls174T), 6 nmol/L; in test [9] (setting [21]), 1 nmol/L; in test [10] (setting [22]), 4 nmol/L; in test [11] (setting [23]) it was 1 nmol/L.
As for `CC[C@@]1(O)C(=O)OCc2c1cc1n(c2=O)Cc2c-1nc1cc3c(c(Br)c1c2CN)OCO3` [Compound 5c], the IC50 in [1] (read-out: 786-O IC50, Table 28, CPT free drugs, renal carcinoma cells 786-O, 96 h, CellTiter-Glo) came to 1 nmol/L; in test [2] (read-out: A2058 IC50) it was 5 nmol/L; in test [3] (read-out: BxPC3 IC50, Table 28, CPT free drugs, pancreatic cancer cells BxPC3, 96 h, CellTiter-Glo), 8 nmol/L; in [4] (read-out: Calu1 IC50), 4 nmol/L; in test [5] (read-out: DEL IC50, Table 28, CPT free drugs, anaplastic large cell lymphoma cells DEL, CellTiter-Glo) it was 0.3 nmol/L; in test [7] (read-out: Karpas299 IC50, Table 28, CPT free drugs, anaplastic large cell lymphoma cells Karpas299, 96 h, CellTiter-Glo), 1 nmol/L. Moreover, the IC50 in test [8] (read-out: L540cy IC50, Table 28, CPT free drugs, Hodgkin's lymphoma cells L540cy, CellTiter-Glo) is 0.8 nmol/L; in [12] (96 h, read-out: Ls174T IC50, Table 28, Ls174T cells, 96 h, CellTiter-Glo), 6 nmol/L; in test [9] (read-out: MDAMB231 IC50, Table 28, CPT free drugs, breast cancer cells MDA-MB-231, 96 h, CellTiter-Glo) it was 2 nmol/L; in test [10] (read-out: MOLM-13 IC50, Table 28, CPT free drugs, acute myeloid leukemia cells MOLM-13, 96 h, CellTiter-Glo), 2 nmol/L; in [11] (read-out: SU-DHL-4 IC50, Table 28, CPT free drugs, B-lymphocyte cancer cells SU-DHL4, 96 h, CellTiter-Glo), 0.5 nmol/L.
